Results: BindingDB's records for patent US20240140938 (Merck Sharp & Dohme, 2024)

Target: T1, Diacylglycerol O-acyltransferase 2 (Homo sapiens, UniProt Q96PD7)
T1 sequence (Q96PD7 whole entry): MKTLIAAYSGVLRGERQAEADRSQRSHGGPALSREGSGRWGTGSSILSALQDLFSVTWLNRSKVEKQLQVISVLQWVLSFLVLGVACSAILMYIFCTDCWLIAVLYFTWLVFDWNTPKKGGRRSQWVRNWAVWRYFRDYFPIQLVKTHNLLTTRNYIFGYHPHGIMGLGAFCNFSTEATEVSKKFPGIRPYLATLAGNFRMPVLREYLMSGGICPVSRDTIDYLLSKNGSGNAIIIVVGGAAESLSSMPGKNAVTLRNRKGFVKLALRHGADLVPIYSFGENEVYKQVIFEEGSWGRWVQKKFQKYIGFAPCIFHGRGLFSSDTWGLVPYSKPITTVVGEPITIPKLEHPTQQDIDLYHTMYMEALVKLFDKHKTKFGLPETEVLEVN
Test: DGAT2 Enzymatic Activity Assay
Description: DGAT2 activity was determined by measuring the amount of enzymatic product 13C18-triolein (13C-1,2,3-Tri(cis-9-octadecenoyl)glycerol) using the membrane prep mentioned above. The assay was carried out in ABgene 384-well assay plates in a final volume of 25 μL at rt.

IC50 [µM]	Compound
0.319	CC(C)n1nc(-c2cccc(OC(F)F)c2)c2c1C[C@H](C(=O)NC1(C)CS(=O)(=O)C1)CC2 [US20240140938, Example 26]
> 10	CC(C)n1nc(-c2cccc(-n3cccn3)c2)c2c1C[C@H](C(=O)NC1(C)CS(=O)(=O)C1)CC2 [US20240140938, Example 97]
> 10	CN1CCC(n2nc(-c3cccc(OC(F)F)c3)c3c2C[C@H](C(=O)N[C@]2(C)CCS(=O)(=O)C2)CC3)CC1 [US20240140938, Example 72]
8.84	CC(C)n1nc(-c2cccc(C(C)(F)F)c2)c2c1C[C@H](C(=O)NC1(C)CS(=O)(=O)C1)CC2 [US20240140938, Example 102]
